Values joined by “and” are separate entries in the source; they are usually repeats but may differ in a detail not shown here. Identical values can stand only once.
How the values were obtained:
[1] = test system: vacuoles of wild-type plants; test: Accumulation of GS-associated compounds in vacuoles separated from wild-type Arabidopsis
Experimental: (§1) To Investigate that these phenomena occurred due to the fact that YCF1 proteins transport heavy metals into vacuoles, the vacuoles were separated from YCF1 transformed plants and wild-type plants, and experiments of transporting cadmium and herbicides were carried out.

[2] = test system: vacuoles of YCF1 transformed plants; test: Accumulation of GS-associated compounds in vacuoles separated from YCF1 transformed Arabidopsis
Experimental: as §1

yeast = test: Growth of yeast on lead or cadmium-containing media; assay type: cell-based, Saccharomyces cerevisiae; details: for Growth of ycf1-YCF1 yeast in media containing lead or cadmium: 1.8 mM lead or 50 uM cadmium, galactose media; for Growth of ycf1 mutant yeast as compared with wild-type yeast: 3 mM lead or 0.1 mM cadmium, three days
Experimental: Wild-type yeast (DTY 165) and ycf1 mutant yeast (DTY 167, MATa ura3 leu2 his3 trp3 lys2 suc2 ycf::hisG) were cultured in YPD liquid media (1% yeast extract, 2% peptone, 2% dextrose) at 30° C. until OD600 reached 1-2, and then yeast cells of the same number (1×10^2, 1×10^3, 1×10^4 or 1×10^5) were cultured in half-diluted YPD solid media containing 3 mM lead at 30° C. for three days. Likewise, they were also cultured in half-diluted YPD solid media containing 0.1 mM cadmium.
The ycf1-pESC yeast, wt-pESC yeast, and ycf1-YCF1 yeast 25 constructed above were each cultured in galactose media (2% galactose, 1% of 0.17% YNB, 0.13% dropout powder, 0.5% ammonium sulfate) to which 1.8 mM lead was added, or in galactose media to which 50 uM of cadmium was added. Control group was cultured in galactose media without heavy metals. Growth degree of each of the recombinant ycf1-pESC yeast, wt-pESC yeast, and ycf1-YCF1 yeast in lead or cadmium-containing media is shown in the photographs of FIG. 2.
Resistance to lead in wt-v yeast, yhl035c-v yeast, and YHL035C yeast was tested according to methods substantially similar to the above Example 3-2.

Arabidopsis plants = test: Growth of Arabidopsis plants in the presence of noxious materials; assay type: in vivo, Arabidopsis thaliana; details: 60 μM pentavalent arsenic three weeks, 60 μM CDNB two months
[3] = test system: ycf1-pESC yeast, wt-pESC yeast, ycf1-YCF1 yeast; test: Heavy metal content of recombinant yeasts by atomic absorption spectrometer; assay type: cell-based, Saccharomyces cerevisiae; details: one day
Experimental: Three kinds of yeasts (ycf1-pESC yeast, wt-pESC yeast, and ycf1-YCF1 yeast) were each cultured in 1/2 galactose solid media containing 1.5 mM lead or 15 uM cadmium for one day, and the cultured yeasts were scraped for harvest. The harvested yeasts were put into 1 ml of concentrated nitric acid, digested for 200° C. for about 6 hours, and then diluted with 10 ml of 0.5 N nitric acid, and the amount of heavy metals contained in the yeasts was measured using an atomic absorption spectrometer (AAS). The measurement results for ycf1-pESC yeast, wt-pESC yeast, and ycf1-YCF1 yeast are represented by graph In FIG. 3.

YCF1 Arabidopsis plants = test: Accumulation of heavy metals in transformed Arabidopsis plants; assay type: in vivo, Arabidopsis thaliana; details: three weeks
Experimental: YCF1 Arabidopsis plants obtained in Example 5 and wild-type Arabidopsis transformed with empty vector, PBI, were cultivated in 1/2 MS media containing lead (0.75 mM) and cadmium (70 μM) for three weeks to investigate accumulation of heavy metals.

poplar = test: Growth of poplar plants in the presence of lead; assay type: in vivo, Populus alba ×P. glandulosa
Experimental: The leaf fragments and stalks of YCF1 poplar plants prepared in Example 5 were mounted on callus-inducible media containing 500 ppm of lead, and cultivated for two weeks to Investigate the difference In their growth. As a control, wild-type poplar plants, which were not transformed, were treated in the same manner, and the results of the experiments are shown in FIG. 10.
YHL035C transformed poplar plants prepared in Example 5 were transferred to a pot and allowed to grow into pot seedlings. These pot seedlings were transferred to soil that was dipped into a solution containing 500 ppm of […].

[4] = YCF1 transformed vacuoles, +MgATP

Question: How did the “Accumulation in the vacuoles, Wild-type Plants, +MgATP” value [1] turn out when `N[C@@H](CCC(=O)N[C@@H](CSc1ccc([N+](=O)[O-])cc1[N+](=O)[O-])C(=O)NCC(=O)O)C(=O)O` [DNB − GS] was run?
Answer: 28 ± 1.3 pmol/1 ul vacuole/20 min

Question: And the “Accumulation in the vacuoles, Wild-type Plants, −MgATP” value ([1]; −MgATP)?
Answer: 21 ± 1.1 pmol/1 ul vacuole/20 min

Question: What about the “Accumulation in YCF1 transformants relative to wild-type (in words)” value ([2]; +MgATP) of the same compound?
Answer: a little higher accumulation than wild-type

Question: And the “Accumulation in the vacuoles, YCF1 Transformed Plants, +MgATP” value [2, 4]?
Answer: 33 ± 1.2 pmol/1 ul vacuole/20 min

Question: What about the “Accumulation in the vacuoles, YCF1 Transformed Plants, −MgATP” value ([2]; YCF1 transformed vacuoles, −MgATP) of the same compound?
Answer: 24 ± 0.9 pmol/1 ul vacuole/20 min

Question: How did the “Accumulation in the vacuoles, Wild-type Plants, +MgATP” value [1] turn out when `N[C@@H](CCC(=O)N[C@@H](CS)C(=O)NCC(=O)O)C(=O)O` [GSH] was run?
Answer: 70 ± 2.2 pmol/1 ul vacuole/20 min

Question: And the “Accumulation in the vacuoles, YCF1 Transformed Plants, +MgATP” value [2, 4]?
Answer: 69 ± 1.1 pmol/1 ul vacuole/20 min

Question: With `[Cd]` [cadmium] as the compound, how does the “Growth of ycf1-YCF1 yeast in media containing lead or cadmium” value (yeast) read?
Answer: grew better than ycf1-pESC yeast or wt-pESC yeast

Question: What about the “Growth of ycf1 mutant yeast as compared with wild-type yeast” value (yeast) of the same compound?
Answer: grew little

Question: What about the “Growth of wild-type Arabidopsis” value (Arabidopsis plants; cadmium various concentrations) of the same compound?
Answer: more chlorosis in leaves

Question: What about the “Accumulation of cadmium in wt-pESC yeast and ycf1-YCF1 yeast compared with ycf1-pESC yeast” value ([3]; 15 uM cadmium) of the same compound?
Answer: high accumulation

Question: What about the “Accumulation of cadmium in YCF1 Arabidopsis plants relative to PBI” value (YCF1 Arabidopsis plants; 70 μM cadmium) of the same compound?
Answer: 2 fold and 3 fold

Question: `[Pb]` [lead] was tested. Which “Sensitivity of yhl035c-v yeast” value (yeast; 1.8 mM lead) did it give?
Answer: more sensitive than wt-v yeast

Question: And the “Growth of ycf1-YCF1 yeast in media containing lead or cadmium” value (yeast)?
Answer: grew better than ycf1-pESC yeast or wt-pESC yeast

Question: And the “Growth of ycf1 mutant yeast as compared with wild-type yeast” value (yeast)?
Answer: decreased

Question: What about the “Growth of YCF1 Arabidopsis” value (Arabidopsis plants; lead three weeks) of the same compound?
Answer: less chlorosis In leaves and better growth of roots

Question: What about the “Accumulation of lead in wt-pESC yeast and ycf1-YCF1 yeast relative to ycf1-pESC yeast” value ([3]; 1.5 mM lead) of the same compound?
Answer: ~2 fold

Question: What about the “Accumulation of lead in YCF1 Arabidopsis plants relative to PBI” value (YCF1 Arabidopsis plants; 0.75 mM lead) of the same compound?
Answer: 2 fold and 1.4 fold

Question: And the “Growth in stalk pieces of YCF1 poplar relative to wild-type” value (poplar; 500 ppm of lead, two weeks)?
Answer: ~2 fold

Question: And the “Growth of YHL035C transformant poplar in soil containing lead” value (poplar; 500 ppm, four weeks)?
Answer: grew much better than the wild-type

Question: What about the “Growth of wild-type poplar in soil containing lead” value (poplar; 500 ppm, four weeks) of the same compound?
Answer: grew poorly
